Each structure is given as a SMILES string. ± gives the expanded uncertainty stated by the source.

This is an account of results in the NIST ThermoML archive (doi:10.1021/je800628a).

A short description of series [1]: Molar enthalpy of transition or fusion. Particulars: Crystal; DSC.
For series [2] the following is noted: Crystal; DTA.

In the case of `c1ccc2ccccc2c1` [naphthalene], the “Molar enthalpy of transition or fusion” value in series [1] was 4.26 ± 0.131 kcal/mol. In addition, in series [2], the Normal melting temperature came out at 83.0 ± 1.1 °C.
